In experiment [1] the test system is E. coli MG1655. Description: microbe, parasite or virus in culture. The class given is cell-based, Escherichia coli. The settings on record: 4 hours, 50% reduction of CFUs vs control, Mueller Hinton Broth, 37°C, five replicates, repeated twice. On the procedure: The MIC50s for all antimicrobials were determined by inoculating strains grown to mid-log phase into the wells of a 96-microwell plate. Approximately 10^2 cells from overnight cultures were inoculated into tubes containing 10 ml of Mueller Hinton Broth medium, and the tubes were incubated at 37°C with strong shaking until the mid-log phase of growth (approximately 10^8 cells/ml). […] The plates were incubated at 37°C for 4 h with continuous shaking in a plate reader (Synergy 2, BioTeK). After four hours, aliquots from wells with OD^600 readings ranging from 10 to 90% values in comparison with the control, were serially diluted in sterile 0.9% NaCl, and incubated during 1 hour to allow the resolution of filaments as consequence of SOS activation, if any. Bacterial suspensions were plated in Mueller Hinton Broth agar plates to estimate the viability as colony forming units (CFUs). Five replicates per concentration were prepared and the experiments were repeated twice.

In experiment [2] the test system is E. coli stress response genes (strain MG1655). Description: Relative gene expression of stress response genes by quantitative real-time PCR. As to Result, cpxR: key: NDE: non-differentially expressed, p-value ≥ 0,05; UP: upregulated, p-value ≤ 0,05; DOWN: downregulated, p-value ≤ 0,05. As to Result, oxyR: key: NDE: non-differentially expressed, p-value ≥ 0,05; UP: upregulated, p-value ≤ 0,05; DOWN: downregulated, p-value ≤ 0,05. As to Result, rpoE: key: NDE: non-differentially expressed, p-value ≥ 0,05; UP: upregulated, p-value ≤ 0,05; DOWN: downregulated, p-value ≤ 0,05. The settings on record: qPCR; for Result, cpxA / Result, cpxR / Result, dinB / Result, lexA / Result, marR / Result, oxyR / Result, phoP / Result, phoQ / Result, recA / Result, rpoE / Result, rpoS / Result, umuC: REST 2009 randomisation test. The class given is cell-based, Escherichia coli. On the procedure: Preparation of each of the six treatments and the control samples was carried out by two operators on three consecutive days, thereby comprising three biological replicates for each of the six experimental and one control groups. To obtain the starting material for the experiment, a fresh bacterial culture was grown from a glycerol stock on Mueller-Hinton (MH) agar plates at 37°C for 18–24 hours. One well-isolated colony per biological replicate was used to inoculate 2 ml of liquid MH (Sigma) in a 10 ml sterile polypropylene tube and incubated at 37°C for 16 hours with mild shaking. The overnight (ON) culture was then diluted 1∶100 in MH, subdivided into seven 10 ml aliquots and incubated in 50 ml-Falcon tubes at 37°C for 2.5 hours at 220 rpm. When the OD600 of bacterial cultures reached 0.5–0.7, respective antibiotics and AMPs were added to a concentration to match with those used in the mutagenesis experiments. These bacterial cultures were incubated for 20 minutes at 37°C with gentle shaking. Two ml of bacterial cultures from each treatment and the control were collected, immediately centrifuged at 10000 g for 2 minutes and the supernatant was removed to stop the treatment. The bacterial pellet was then resuspended in 1 ml MH, followed by an addition of 1 ml of RNAprotect Bacteria Reagent (Qiagen), 5 minutes incubation and centrifugation at 10000 g for 2 minutes at room temperature. The supernatant was discarded and the bacterial pellet was immediately frozen and stored at −80°C until RNA extraction.
Total RNA was isolated using RNeasy kit (Qiagen) according to the manufacturer's instructions and eluted in 50 µl of RNase-free water. The nucleic acid yield and purity were determined by measuring the optical density at A260/280 using a Nanodrop spectrophotometer (Thermo Scientific). RNA samples were treated with TURBO DNase (Life Technologies). Briefly, ten µg of RNA were used in a total volume of 500 µl containing 20 units of TURBO DNase, incubated for 30 minutes at 37°C, immediately followed by RNeasy (Qiagen) cleanup and elution in 30 µl of RNase-free water. Following DNase treatment, RNA integrity was assessed using Agilent RNA 6000 Nano kit and 2100 Bioanalyzer instrument (both Agilent Technologies).
High-Capacity cDNA Reverse Transcription Kit with RNase Inhibitor (Applied Biosystems) was used for cDNA synthesis. Initially, to ensure linear conversion of the transcripts, the dynamic range of reverse transcription reaction was tested by performing a standard curve with cDNA, synthesised using various input amounts of pooled RNA. Total RNA (250 ng per reaction) and random primers were used for cDNA synthesis. To obtain sufficient amount of cDNA, several batches of 20 µl RT reactions were pooled, diluted 50-fold with RNase-free water and stored in single-use aliquots at −80°C until further use. All 21 samples were tested for presence of contaminating genomic DNA by running the mdoG assay with cDNA and the respective no reverse transcription (−RT) controls.
Escherichia coli strain K-12 substrain MG1655 complete genome (accession U00096) sequence was downloaded from NCBI database (www.ncbi.nlm.nih.gov) and used for primer design. Target sequence accession number, location of the amplicon, amplicon length and primer sequences for each assay can be found in table S2. Primers were designed using Primer Express software (Applied Biosystems) and optimized for annealing temperature of 60°C. Each primer pair and amplicon were checked for secondary structure formation using Oligo Tool (Integrated DNA technologies, http://eu.idtdna.com/analyzer/Applications/OligoAnalyzer/).
(In general: Quantitative PCR measures a nucleic acid by following its amplification.)

Experiment [3] concerns E. coli stress response genes. The settings on record: cited from earlier work.
Experiment [4] relates to E. coli MG1655. Description: Minimal inhibitory concentration (MIC), micro-dilution. The settings on record: inoculum 2×10^8 cfu/ml, 24 h, liquid MH medium, 37°C. The class given is cell-based, Escherichia coli. On the procedure: E. coli K-12 MG1655 was used for all experiments, grown in liquid Mueller-Hilton (MH) agar or agarose, unless otherwise indicated. All experiments were carried out at 37°C.
MICs were determined according to CLSI recommendations by a micro-dilution method with the exception that the inoculum size that was adjusted to 2×10^8 cfu/ml from a regrowth of overnight cultures to be consistent with the mutagenesis experiments. […] Polypropylene non-binding plates (Th. Geyer, Germany) were used for all experiments.

Setting [5] is: 20 minutes exposure vs non-treated bacteria.
Where [6] appears, read: 20 minutes exposure vs non-treated bacteria, normalized to arcA, mdoG, tus, Pexiganan 16, Melittin 16, Kanamycin 16, Ciprofloxacin 0.5, Lysozyme 128, Ampicillin 32 μg/ml, three biological replicates.
The mark [7] stands for this setting: norfloxacin 250 ng/ml, 30 min, ref Kohanski,2007.
Where [8] appears, read: norfloxacin 250 ng/ml, 60 min, ref Kohanski,2007.
[9] abbreviates: norfloxacin 15 μg/ml, 20 min, gyrA+/parCr, ref Peter,2004.
The mark [10] stands for this setting: norfloxacin 15 μg/ml, 30min, gyrAr/parCCr cells, ref Peter,2004.

Read-outs that look alike come from different tables or passages of the source.

In the case of `O=C(O)c1cn(C2CC2)c2cc(N3CCNCC3)c(F)cc2c1=O` [Ciprofloxacin], the MIC50 in the experiment on E. coli MG1655 [1] (Escherichia coli, read-out: MIC50) amounted to 0.05 µg/mL. Also, in experiment [2] (20 minutes exposure), the “fold downregulation, cpxA” value is reported as 2.25 fold; the “fold downregulation, marR” value was 5.35 fold; the “fold downregulation, rpoS” value turned out to be 2.08 fold; the “fold upregulation, dinB” value is 14.2 fold. Besides, in experiment [2] (20 minutes exposure), the “fold upregulation, lexA” value is listed as 10.5 fold; the “fold upregulation, recA” value worked out at 66.6 fold; the “fold upregulation, umuC” value came out at 11.26 fold. Moreover, in experiment [2] (setting [5]), the “Result, cpxA” value is “DOWN (2.25-fold)”; the “Result, cpxR” value was “NDE”; the “Result, dinB” value is reported as “UP (14.2-fold)”; the “Result, lexA” value was “UP (10.5-fold)”. Also, in experiment [2] (setting [5]), the “Result, marR” value was “DOWN (5.35-fold)”; the “Result, oxyR” value is listed as “NDE”; the “Result, phoP” value is “NDE”; the “Result, phoQ” value is given as “NDE”. In experiment [2] (setting [5]), the “Result, recA” value was “UP (66.6-fold)”; the “Result, rpoE” value was “NDE”; the “Result, rpoS” value is reported as “DOWN (2.08-fold)”; the “Result, umuC” value is listed as “UP (11.26-fold)”. In addition, in experiment [2] (setting [6]), the “Expression, cpxA (Envelope stress)” value turned out to be 0.443; the “Expression, cpxR (Envelope stress)” value is listed as 0.425; the “Expression, dinB (SOS response)” value was 14.157; the “Expression, lexA (SOS response)” value is listed as 10.527. Further, in experiment [2] (setting [6]), the “Expression, oxyR (Oxidative stress)” value is reported as 3.552; the “Expression, phoP (Envelope stress)” value came out at 0.655; the “Expression, phoQ (Envelope stress)” value was 0.48; the “Expression, recA (SOS response)” value is listed as 66.583. Moreover, in experiment [2] (setting [6]), the “Expression, rpoE (Envelope stress)” value worked out at 0.391; the “Expression, rpoS (Sigma S response)” value was found to be 0.479; the “Expression, umuC (SOS response)” value worked out at 11.255.
On to `CC[C@H](C)[C@H](NC(=O)[C@H](CCCCN)NC(=O)[C@H](CCC(=O)O)NC(=O)[C@H](CCCCN)NC(=O)[C@H](CO)NC(=O)[C@H](CCCCN)NC(=O)[C@H](CCCNC(=N)N)NC(=O)[C@H](Cc1ccccc1)NC(=O)[C@H](Cc1ccccc1)NC(=O)[C@H](CC(=O)O)NC(=O)CNC(=O)[C@H](CC(C)C)NC(=O)[C@@H](N)CC(C)C)C(=O)NCC(=O)N[C@@H](CCCCN)C(=O)N[C@@H](CCC(=O)O)C(=O)N[C@@H](Cc1ccccc1)C(=O)N[C@@H](CCCCN)C(=O)N[C@@H](CCCNC(=N)N)C(=O)N[C@H](C(=O)N[C@H](C(=O)N[C@@H](CCC(N)=O)C(=O)N[C@@H](CCCNC(=N)N)C(=O)N[C@H](C(=O)N[C@@H](CCCCN)C(=O)N[C@@H](CC(=O)O)C(=O)N[C@@H](Cc1ccccc1)C(=O)N[C@@H](CC(C)C)C(=O)N[C@@H](CCCNC(=N)N)C(=O)N[C@@H](CC(N)=O)C(=O)N[C@@H](CC(C)C)C(=O)N[C@H](C(=O)N1CCC[C@H]1C(=O)N[C@@H](CCCNC(=N)N)C(=O)N[C@H](C(=O)N[C@@H](CCC(=O)O)C(=O)N[C@@H](CO)C(=O)O)[C@@H](C)O)C(C)C)[C@@H](C)CC)C(C)C)[C@@H](C)CC` [LL-37], for which the MIC50 in the experiment on E. coli MG1655 [1] was determined as 8 µg/mL.
Turning to `CCn1cc(C(=O)O)c(=O)c2cc(F)c(N3CCNCC3)cc21` [norfloxacin], the “expression, recA (microarray database)” value in experiment [3] (norfloxacin 0.12 μg/ml, 30 min, ref Shaw,2003) is listed as 11.1. Also, in experiment [3] (setting [7]), the “expression, rpoE (microarray database)” value is on record as -2.308 and the “expression, rpoS (microarray database)” value is -2.24. Also, in experiment [3] (setting [8]), the “expression, cpxR (microarray database)” value is -2.588 and the “expression, phoP (microarray database)” value was -2.179. For the same compound, the “expression, phoQ (microarray database)” value in experiment [3] (norfloxacin 15 μg/ml, 4 min, gyrA+/parC+, ref Peter,2004) is given as -2.778. For the same compound, the “expression, cpxA (microarray database)” value in experiment [3] (norfloxacin 15 μg/ml, 10 min, gyrA+/parCr, ref Peter,2004) was -2.439. In addition, in experiment [3] (setting [9]), the “expression, dinB (microarray database)” value was 2.57 and the “expression, oxyR (microarray database)” value is listed as 4.05. In addition, in experiment [3] (setting [10]), the “expression, lexA (microarray database)” value was 5 and the “expression, umuC (microarray database)” value was 8.421. Also, the “expression, marR (microarray database)” value in experiment [3] (norfloxacin (30min) / spectinmycin, 250 ng/ml, 30 min, spectinomycin (400 μg/ml), ref Kohanski,2007) is given as -3.206.
By MIC is commonly meant the lowest concentration found to suppress growth. Read a high MIC as a need for much substance. As for “Human lysozyme: human lysozyme obtained from Sigma”, the MIC50 in the experiment on E. coli MG1655 [1] amounted to 12.8 µg/mL. In addition, in the experiment with E. coli MG1655 [4], the MIC worked out at 20 µg/mL. In addition, in experiment [2] (setting [5]), the “Result, cpxA” value was “NDE”; the “Result, cpxR” value is recorded as “NDE”; the “Result, dinB” value is on record as “NDE”; the “Result, lexA” value is given as “NDE”. Further, in experiment [2] (setting [5]), the “Result, marR” value is reported as “NDE”; the “Result, oxyR” value is “NDE”; the “Result, phoP” value is reported as “NDE”; the “Result, phoQ” value is given as “NDE”. Moreover, in experiment [2] (setting [5]), the “Result, recA” value is “NDE”; the “Result, rpoE” value is given as “NDE”; the “Result, rpoS” value was “NDE”; the “Result, umuC” value is reported as “NDE”. Further, in experiment [2] (setting [6]), the “Expression, cpxA (Envelope stress)” value was 0.902; the “Expression, cpxR (Envelope stress)” value is reported as 0.908; the “Expression, dinB (SOS response)” value is recorded as 1.116; the “Expression, lexA (SOS response)” value came to 1.18. Also, in experiment [2] (setting [6]), the “Expression, marR (Independent multiple antibiotic resistance)” value turned out to be 0.633; the “Expression, oxyR (Oxidative stress)” value turned out to be 1.334; the “Expression, phoP (Envelope stress)” value was 0.794; the “Expression, phoQ (Envelope stress)” value stood at 0.667. In experiment [2] (setting [6]), the “Expression, recA (SOS response)” value came out at 1.27; the “Expression, rpoE (Envelope stress)” value is 0.784; the “Expression, rpoS (Sigma S response)” value was 0.899; the “Expression, umuC (SOS response)” value was 1.056.

(Values after article PMC4192597, “Antimicrobials, Stress and Mutagenesis” (PLoS Pathogens, 2014).)
